The test system of assay [1] is cell inoculum (shake flask culture). Kind of assay: Shake flask culture with crude COFA with or without BHT, YSI glucose measurements. It counts as cell-based. As to conditions: BHT 0 wt % (control) to 5 wt % in crude COFA; 50% v/v COFA; 40 g/L glucose synthetic medium; 30° C., 260 rpm. The method, then:
In an experimental example, a cell inoculum originated from a 72 hour seed flask with a 30 g/L synthetic medium. The culture was inoculated into 40 g/L glucose in synthetic medium. […] The flasks were incubated in a thirty degree Celsius (30° C.), 260 revolutions per minute (rpm) shaker. One to one point five milliliter (1-1.5) mL samples were taken at points in time.

Assay [2] relates to gram-positive and gram-negative bacteria (e.g., lactobacillus). As to conditions: cited from earlier work.
Assay [3] has as its system yeast (e.g., Saccharomyces). The settings on record: at comparable concentrations; cited from earlier work.

The source of these data is patent US10494597B2, “Contamination mitigation” (Butamax Advanced Biofuels LLC, priority 2014, dated 2019).

On to `Cc1cc(C(C)(C)C)c(O)c(C(C)(C)C)c1` [BHT, butylated hydroxytoluene], for which the glucose consumption entry in assay [1] is “No difference in glucose consumption was observed”. Also, the “antimicrobial activity to gram-positive and gram-negative bacteria” value in assay [2] is given as “exhibits antimicrobial activity”. The effect on yeast result in assay [3] was “does not affect yeast”.
